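In this assay, cells in 96-well plates receive the compound at five concentrations for 48 hours. Endpoints are linearly interpolated between the surrounding concentrations. The concentration for 50% growth inhibition is given as GI50.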 Active and inactive are the calls of the source. Rule as the data show it: active = GI50 up to about 1.1 µM and inactive = higher. Where only a bound is given, the exact number is not on record here.

Experiment in all cases: growth of human tumour cells (NCI), 48 h
The test system of assay [1] is OVCAR-4.
The test system of assay [2] is HCT-15.
Assay [3] deals with DU-145.
The subject of assay [4] is SNB-19.
Assay [5] deals with SW-620.
In assay [6] the test system is NCI-H23.
Assay [7] has as its system SK-MEL-5.
Assay [8] deals with Malme-3M.
The test system of assay [9] is DMS-273.
Assay [10] deals with UACC-257.
Assay [11] relates to PC-3.
Assay [12] concerns M14.
The subject of assay [13] is SN12C.
Assay [14] relates to TK-10.
Assay [15] has as its system LOX IMVI.
The subject of assay [16] is SK-OV-3.
Assay [17] concerns DLD-1.
Assay [18] concerns CAKI-1.
Assay [19] concerns U-251.
In assay [20] the test system is MOLT-4.

In the case of `COc1ccc2c(c1)c1c(C)c3cnccc3c(C)c1n2CCCN`, the GI50 is 0.0541 µM (active) in [1]; 0.0925 µM in assay [2]; 0.0603 µM (active) in [3]; 0.29 µM (active) in [4]; 0.0466 µM (active) in [5]; 0.216 µM (active) in assay [6]. Besides, the GI50 is 0.383 µM (active) in [7]; 0.681 µM (active) in assay [8]; 0.1 µM (active) in assay [9]; 0.518 µM (active) in [10]; 0.0715 µM (active) in assay [11]; 0.145 µM (active) in [12]. In addition, the GI50 is 0.234 µM (active) in assay [13]; 0.248 µM (active) in [14]; 0.0556 µM (active) in assay [15]; 0.415 µM (active) in assay [16]; 0.0853 µM (active) in assay [17].

Take `CN(C)CCCNc1ccc2ncn3c4ccc(O)cc4c(=O)c1c23`: the GI50 in assay [1] was 1.55 µM (inactive); in [2], 1.91 µM; in [18], 0.195 µM (active); in assay [3] it was 0.638 µM (active); in assay [4], 1.24 µM (inactive); in assay [5], 0.647 µM (active). Further, the GI50 in assay [6] was 0.716 µM (active); in assay [7], 0.64 µM (active); in assay [8], 2.83 µM (inactive); in assay [9] it was 0.246 µM (active); in assay [10], 8.09 µM (inactive); in [11], 1.83 µM (inactive). The GI50 in assay [12] is 1.65 µM (inactive); in assay [13], 0.5 µM (active); in assay [14], 1.76 µM (inactive); in assay [15], 0.607 µM (active); in assay [16] it was 0.321 µM (active); in [19], 0.203 µM (active). Besides, the GI50 in assay [17] was 1.4 µM (inactive); in [20], 0.0406 µM (active).

With `O=C(c1cccs1)N(C(=S)N1CCN(c2ccccc2)CC1)C1CCCCC1`, the GI50 in assay [1] is > 100 µM (inactive); in [2], greater than 100 µM; in [18], > 100 µM (inactive); in assay [4], > 100 µM (inactive); in [5] it was > 100 µM (inactive); in assay [6], > 100 µM (inactive). Further, the GI50 in assay [7], in [8], in assay [9], in assay [10], in [12] and in assay [13] was > 100 µM (inactive) in each case. Further, the GI50 in assay [14], in assay [15], in assay [16], in assay [19], in [17] and in assay [20] was > 100 µM (inactive) each time.

For the compound `Cc1cccc(=O)c([O-])c1.Cc1cccc(=O)c([O-])c1.[Bi+3].[Cl-]`, the GI50 was 6.07 µM (inactive) in assay [1]; 4.84 µM in assay [2]; 15.5 µM (inactive) in [18]; 15.5 µM (inactive) in assay [4]; 5.47 µM (inactive) in [5]; 10.9 µM (inactive) in [6]. In addition, the GI50 in assay [7] is 11.3 µM (inactive); in assay [8] it was 11.9 µM (inactive); in assay [9] it was 7.29 µM (inactive); in [10], 8.32 µM (inactive); in assay [12] it was 7.55 µM (inactive); in assay [13], 11.8 µM (inactive). Further, the GI50 in assay [14] was 17.5 µM (inactive); in assay [15], 9.55 µM (inactive); in assay [16], 22.5 µM (inactive); in assay [19] it was 11.5 µM (inactive); in [17] it was 9.95 µM (inactive); in [20], 5.12 µM (inactive).

For `OCC(O)COc1ccc(F)cc1` (configuration not stated), the GI50 in assay [1] is > 100 µM (inactive); in assay [2], greater than 100 µM; in [18] it was > 100 µM (inactive); in [4], > 100 µM (inactive); in assay [5], > 100 µM (inactive); in [6] it was > 100 µM (inactive). Moreover, the GI50 in [7], in [8], in assay [9], in assay [10], in assay [12] and in [13] was > 100 µM (inactive) each time. Further, the GI50 in assay [14], in assay [15], in assay [16], in assay [19], in assay [17] and in assay [20] was > 100 µM (inactive) each time.

Consider `O=C1c2ccccc2C(=O)c2c1ccc1c2N=C(c2ccc(Br)cc2)CC(c2cccc3ccccc23)N1` (configuration not stated), for which the GI50 in assay [1] is > 100 µM (inactive); in assay [2], greater than 100 µM; in assay [18], > 100 µM (inactive); in assay [4] it was > 100 µM (inactive); in assay [5] it was > 100 µM (inactive); in assay [6], > 100 µM (inactive). In addition, the GI50 in [7], in [8], in [9], in [10], in assay [12] and in assay [13] was > 100 µM (inactive) in each case. Further, the GI50 in assay [14] is > 100 µM (inactive); in assay [15], > 100 µM (inactive); in assay [16] it was > 100 µM (inactive); in [19], > 100 µM (inactive); in assay [17] it was > 100 µM (inactive); in assay [20], > 10 µM (inactive).

Turning to `CC(C)CCCC(C)[C@H]1CCC2[C@@H]3CCC4Nc5nocc5C[C@]4(C)C3CC[C@@]21C` (some centres not stated), the GI50 in assay [1] is 19.4 µM (inactive); in assay [2], 14.6 µM; in assay [18], 14.4 µM (inactive); in assay [4] it was 21.2 µM (inactive); in assay [5] it was 15.1 µM (inactive); in [6] it was 14.6 µM (inactive). In addition, the GI50 in [7] is 14.6 µM (inactive); in [8], 15.5 µM (inactive); in [9], 19.2 µM (inactive); in [10] it was 19.7 µM (inactive); in assay [12], 16.3 µM (inactive); in assay [13], 18.1 µM (inactive). Further, the GI50 in assay [14] is 8.07 µM (inactive); in [15], 2.23 µM (inactive); in assay [16], 19.4 µM (inactive); in assay [19] it was 15.7 µM (inactive); in assay [17], 19.7 µM (inactive); in [20], 18.2 µM (inactive).
